Laboratory results published in patent publication US20230241000A1, “GSK3 INHIBITOR-LOADED NANO FORMULATIONS AS A CANCER IMMUNOTHERAPEUTIC” (The Regents of the University of California, priority 2020, published 2023).
“Also recorded” adds a separate entry of the source.

Assay: Remote loading of GSK3 inhibitors into silicasomes: encapsulation efficiency and loading capacity
Type: physicochemical
Description: The overall scheme for the synthesis of silicasome carriers to deliver GSK3 inhibitors is outlined in FIG. 3. Briefly, a large batch (i.e. 120 g) synthesis of bare particles was carried out as previously, yielding ˜70 nm MSNPs (FIG. 3, panel A) (22). […] 20 mg soaked-in MSNPs were then used together with an ethanol suspended lipid solution, comprised of a mixture of 60 mg DSPC:Cholesterol:PE-PEG2000 (molar ratio of 6:4:0.3), for coating with a lipid bilayer by a flow through sonication procedure (FIG. 3, panel B). Following the removal of the non-encapsulated trapping agent, AZD2858, AZD1080, LY2090314, and 1-Azakenpaullone were dissolved in 0.9% saline and incubated with the silicasome carrier to assess the loading capacity in response to different feed weight percentages (FIG. 11).
Four GSK3 inhibitor-laden silicasome formulations were analyzed to assess encapsulation efficiency and loading capacity. 100 μL of the silicasomes suspension at 10 mg/mL in 0.9% NaCl (1 mg silicasomes) was added to AZD1080, AZD2858, LY2090314, and 1-azakenpaullone solutions, which were prepared by adding 50, 100 or 200 μg of each inhibitor to 900 μL water. These drug mass quantities provided feed weight percentages of 5, 10, and 20%, in comparison to the silicasome mass. Following execution of the remote loading procedure as detailed above, the crude solutions were used to assess absorbance in a glass bottom 96-well plate (Total Drug Absorbance). Silicasomes were centrifuged at 21,000×g for 15 minutes to pellet the particles. After removal of the supernatant, the silicasomes were re-suspended in aa fresh 0.9% NaCl solution. This was repeated three times to remove any unloaded inhibitor. The silicasome solution was then sampled and absorbance was measured to determine Loaded Drug Absorbance. Concentration-matched unloaded ‘blank’ silicasomes also had absorbance measured (Silicasome Blank Absorbance). Encapsulation efficiency was calculated by the following formula: […]
All measurements were taken using a SpectraMax M5 plate reader (Molecular Devices). All solutions were diluted 1/10 in 0.9% NaCl solution prior to absorbance reads. The absorbances used for each compound were: 418 nm for AZD1080, 383 nm for AZD2858, 213 nm for LY2090314, and 334 nm for 1-azakenpaullone.

With `N#Cc1ccc2[nH]c(O)c(-c3ccc(CN4CCOCC4)cn3)c2c1` [AZD1080] the “Encapsulation Efficiency” value (AZD1080 remote loaded in silicasome, feed weight of 5%, ± SD, 3 samples) was 62.5%, the “Loading Capacity” value (AZD1080 remote loaded in silicasome, ± SD, 3 samples) was 8.1 w/w % and the “solubility during remote loading (in words)” value (dissolved in 0.9% saline, incubated with silicasome carrier, feed weight %) was “good aqueous solubility”. For the same compound, the “encapsulation efficiency in silicasomes (in words)” value (remote loading at 5, 10 or 20 feed weight %) was “highest encapsulation efficiency; also recorded: moderate efficiency”.
